Columns and labels:
[1] = system: wild type Arabidopsis (Col-0); assay: Growth of Arabidopsis seedlings on half MS medium with C17 or analogues; assay type: in vivo; conditions: 200 nM
Description: (§1) C17 (5-(4-chlorophenyl)-7-(2-methoxyphenyl)-1,5,6,7-tetrahydro-[1,2,4]triazolo[1,5-a]pyrimidine; ChemDiv, Catalogue #: 7693622), a synthetic molecule, was identified from a chemical screen as a ploidy-inducing compound in Arabidopsis protoplasts. To test the effects of C17 on plants, Arabidopsis seeds were plated on half MS medium (Murashige, T. and F. Skoog, 1962) in the presence or absence of 200 nM C17 or its analogues. […] To dissect the C17 inhibitory effects, we employed confocal laser scanning microscopy (LSM710, ZEISS) to observe the root structure. Five-day-old Arabidopsis seedlings grown on vertical plates were transferred to half MS medium containing C17 for further growth. After three-day treatment, the root tips were analysed. Consistent to its growth inhibitory activity, C17 caused cell death at a concentration as little as 25 nM (FIG. 2). At the lowest concentration applied, root cortical cells of the transition zone were affected. This phenotype was aggravated and expanded to other tissues with an increasing dosage of C17 (FIG. 2).
(§2) For studying the growth inhibitory effects of C17 on plants, wild type and C17 resistant mutants were germinated on half MS medium (Murashige and Skoog, 1962) supplemented with or without indicated levels of C17 or its analogs. Seven-day-old seedlings were photographed. […]

Arabidopsis root = assay: Root structure and cell death by propidium iodide staining and confocal microscopy; assay type: in vivo
Description: as §1, §2

[2] = system: ixr1-1, ixr1-2, and ixr2-1 mutants; assay: Sensitivity of isoxaben resistant mutants to C17; assay type: in vivo, Arabidopsis; conditions: 200 nM C17, 3 days
From the text: To date, several cellulose synthase inhibitors have been reported. In terms of molecular structure, the C17 compound differs completely from any known cellulose inhibitor.
For studying the growth inhibitory effects of C17 on plants, wild type and C17 resistant mutants were germinated on half MS medium (Murashige and Skoog, 1962) supplemented with or without indicated levels of C17 or its analogs. Seven-day-old seedlings were photographed. For observation of the root structure, five-day-old Arabidopsis seedlings were transferred to half MS medium containing different dosages of C17. After a three-day treatment, seedlings were photographed and their root tips were stained with propidium iodide (PI), a fluorescent dye that is excluded from the membranes of healthy cells but penetrates the plasma membrane of dead cells. The stained root tips were visualized by confocal laser scanning microscopy (LSM710, ZEISS). The ixr1-1 (collection number CS6201), ixr1-2 (CS6202) and ixr2-1 (CS6203) mutants were acquired from the ABRC. Five-day-old Arabidopsis seedlings were transferred to half MS medium with or without 200 nM C17. After 3 day, the plants were photographed.

[3] = system: Arabidopsis root elongation zone; assay: Detection of cell wall weakening by PI uptake under gentle pressure on the root; assay type: in vivo
Description: Because the cellulose synthesized by the CESA1/CESA3 complex is a primary cell wall component, it was expected that C17-treated plants would display a weaker cell wall, which can be visualized by the uptake of propidium iodide (PI) following the application of a gentle pressure on the root.
For the detection of cell wall weakening, 3-day-old seedlings grown on half-strength MS medium were transferred to liquid medium without or with 200 nM C17. The root tips were stained with […] mL^−1 prodium iodide for three min. The stained root tips were put on the Nunc™ Lab-Tek™ Chambered Coverglass (Catalog #155361) without pressure or microscope slide with cover slip that gave a gentle exerting of pressure. By using confocal laser scanning microscopy (LSM710, ZEISS), the brittle cells could be visualized by the uptake of PI.

## COc1ccccc1C1CC(c2ccc(Cl)cc2)N=C2N=CNN21 (stereo not drawn) [C17, 5-(4-chlorophenyl)-7-(2-methoxyphenyl)-1,5,6,7-tetrahydro-[1,2,4]triazolo[1,5-a]pyrimidine]
[1]
  effect on plant growth: severe growth inhibition accompanied by radial swelling of the root tip
Arabidopsis root; 100 nM C17, three-day treatment
  cell elongation phenotype: radical rather than polar cell elongation
Arabidopsis root; five-day-old seedlings, three-day treatment, lowest concentration applied
  concentration causing cell death in the root: 25 nM
[2]
  sensitivity of isoxaben resistant mutants (ixr1-1, ixr1-2, ixr2-1): still sensitive
[3]; 200 nM C17, C17-tolerant mutants
  PI uptake and growth inhibition in C17-tolerant mutants: No PI-positive cells and growth inhibition
[3]; 200 nM C17, wild type, PI uptake
  time to cell wall weakening in the root elongation zone: ≤ 2 h

Source: patent publication US11193136B2, “Cellulose synthase inhibitors and mutant plants” (VIB VZW, priority 2016, dated 2021)
